The results in this text go back to patent US20240092761A1, “QUINAZOLINE COMPOUNDS AND METHODS OF USE” (IAMBIC THERAPEUTICS, INC., priority 2022, published 2024).

One assay concerns OVCAR-3 cells. Briefly: Cell Growth Inhibition, OVCAR-3 (CellTiterGlo, 6 days). Format: cell-based. As to conditions: Homo sapiens, 144 h; OVCAR-3, 6-day treatment, CellTiterGlo 2.0. The source says:
(§1) MCF-7 and OVCAR-3 cells were used to evaluate the anti-proliferation activity of the CDK inhibitors. MCF-7 (ATCC, HTB-22) cells are epithelial cells from a patient with ER+ metastatic adenocarcinoma. OVCAR-3 (ATCC, HTB-161) cells were derived from malignant ascites of a patient with ovarian cancer and are known to have CCNE1 amplification. Both cell lines were maintained in RPMI media supplemented with 10% fetal bovine serum. For cell growth inhibition assay, CDK inhibitors in DMSO solution were dispensed with either Echo 655 (Beckman Coulter) or Tecan D300e (HP) into 384-well plates (Corning #3765) and the 384-well plates were UV-sterilized prior to the assay. The inhibitors were typically tested in the 10-10,000 nM concentration range with half-log serial dilutions. MCF-7 or OVCAR-3 (500 cells/30 μL/well) were added to each well using Multidrop Combi (ThermoFisher) using standard cassettes. The assay plates with cells were cultured at 37° C., 5% CO2 for 6 days. At the end of the 6-day treatment, 30 μL of CellTiterGlo 2.0 (Promega) was added to each well and the luminescent signal was read using CLARIOstar plus (BMG). The percentage of cell growth inhibition (% CGI) was calculated using the following formula % CGI=100−100×luminescencesample/luminescencecontrol. The half maximal inhibitory concentration (IC50) was determined by nonlinear curve fitting (four parameters, variable slope).

The next assay addresses CDK4/Cyclin D1 (Homo sapiens (Human), UniProt P11802). Nature of the assay: CDK4/Cyclin D1 CHEF Assay (AQT0258 peptide). In kind it is biochemical. As to conditions: 200 uM ATP, read-out: CDK4/ CyclinD1 AQT IC50. From the text:
CDK4/Cyclin D1 CHEF Assay
The purpose of CDK4/Cyclin Dl assay is to evaluate the inhibition (% inhibition and IC50 values) of small molecule inhibitors by using a Chelation-Enhance Fluorescence (CHEF) assay. In a CHEF assay, phosphorylation of a peptide substrate results in proportional increase in fluorescence. CHEF kinase assay use peptide substrates containing a synthetic alpha-amino acid with a side chain bearing an 8-hydroxyquinoline derivative (sulfonamido-oxide, Sox). Upon phosphorylation of a nearby serine, threonine or tyrosine and in the presence of Mg(II), the spectral properties of the Sox residue are altered, emitting 485 nm wavelength light when excited with a 360 nm wavelength light source. CDK4/Cyclin D1 catalyzes the phosphoryl transfer to the SOX-labeled substrate peptide AQT0258 from Assayquant Technologies. Typical reaction solutions contained 2% DMSO (+/−inhibitor), 10 mM MgCl2, 1 mM DTT, 200 uM ATP (ATP Km=195.2 uM), 0.012% Brig-35, 10 uM AQT0258 peptide, 0.02% BSA, 1% Glycerol, 0.55 mM EGTA, 2.5 nM CDK4/Cyclin D1 in 54 mM HEPES buffer at pH 7.5. The reaction was initiated with the addition of substrate solution, following a 30-minute pre-incubation of enzyme and inhibitor at 22° C. in the reaction mix. Reactions were allowed to proceed for 3 hrs at 22° C., followed by fluorescence read of the reaction. The IC50 determinations were made from a plot of the fractional velocity as a function of inhibitor concentration fit to the 4 parameters IC50 equation.

The next assay has as its target CDK6/Cyclin D3 (Homo sapiens (Human), UniProt Q00534). Nature of the assay: CDK6/Cyclin D3 ADP-Glo Kinase Assay. Conditions: 100 uM ATP, read-out: CDK6/ CyclinD3 IC50. Format: biochemical. The method, then: CDK6/Cyclin D3 ADP-Glo Kinase Assay
The purpose of the CDK6/Cyclin D3 assay is to evaluate the inhibition (% inhibition and IC50 values) in the presence of small molecule inhibitors by using a Luminescent based ADP-Glo assay. CDK6/Cyclin D3 catalyzes the production of ADP from ATP. ADP-Glo assay monitors ADP producing biochemical reactions. ADP-Glo is performed in 2 steps upon completion of kinase reaction: a combined termination of kinase reaction and depletion of remaining ATP in the first step, and conversion of generated ADP to ATP and the newly produced ATP to light output using luciferase/luciferin reaction in the second step. The luminescent signal generated is proportional to the ADP concentration produced and is correlated with the kinase activity. CDK6/Cyclin D3 was purchased from Carna. […] The assay was initiated with the addition of ATP-containing substrate solution, following a 30-minute pre-incubation of enzyme and inhibitor at room temperature in the reaction mixture. The reaction was stopped after 90 minutes at room temperature by the addition of 10 uL of ADP-GLO Reagent. After a 90-minute incubation, 20 uL of Kinase Detection Reagent was added. Samples were incubated for 40 minutes, after which plate well luminescence was measured on a Envision microplate reader. The IC50 determinations were made from a plot of the fractional velocity as a function of inhibitor concentration fit to the 4 parameters IC50 equation.
A general note: ADP-Glo turns the ADP formed in a reaction into a luminescent signal.

Assay [1] concerns the target CDK2/Cyclin E1 full length (Homo sapiens (Human), UniProt P24941). Nature of the assay: CDK2/Cyclin E1 Full Length ADP-Glo Kinase Assay. Conditions: 20 uM ATP, read-out: CDK2/ CyclinE1 IC50. Format: biochemical. The method, then: CDK2/Cyclin E1 Full Length ADP-Glo Kinase Assay
The purpose of CDK2/Cyclin E1 assay is to evaluate the inhibition (% inhibition and IC50 values) of small molecule inhibitors by using a Luminescent based ADP-Glo assay. CDK2/Cyclin E1 full length catalyzes the production of ADP from ATP. ADP-Glo assay monitors ADP producing biochemical reactions. ADP-Glo is performed in 2 steps upon completion of kinase reaction: a combined termination of kinase reaction and depletion of remaining ATP in the first step, and conversion of generated ADP to ATP and the newly produced ATP to light output using luciferase/luciferin reaction in the second step. The luminescent signal generated is proportional to the ADP concentration produced and is correlated with the kinase activity. CDK2/Cyclin E1 was purchased from Eurofins (Cat 14-475M). Typical reaction solutions (10 uL final reaction volume) contained 2% DMSO (f inhibitor), 10 mM MgCI2, 1 mM EGTA, 0.05% BSA, 2 mM DTT, 20 uM ATP (ATP Km=64.78 uM), 0.01% Brig-35, 0.75 uM substrate, and 0.328 nM wild-type full length CDK2/Cyclin E1 enzyme complex in 50 mM HEPES buffer at pH 7.5. The assay was initiated with the addition of ATP-containing substrate solution, following a 30-minute pre-incubation of enzyme and inhibitor at room temperature in the reaction mixture. The reaction was stopped after 90 minutes at room temperature by the addition of 10 uL of ADP-GLO Reagent. After a 90 minute incubation, 20 uL of Kinase Detection Reagent was added. Samples were incubated for 40 minutes, after which plate well luminescence was measured on a Envision microplate reader. The IC50 determinations were made from a plot of the fractional velocity as a function of inhibitor concentration fit to the 4 parameters IC50 equation.

A further assay has as its target CDK1/Cyclin B1 (Homo sapiens (Human), UniProt P06493). Briefly: CDK1/Cyclin B1 ADP-Glo Kinase Assay. As to conditions: 80 uM ATP. Format: biochemical. The protocol: CDK1/Cyclin B1 ADP-Glo Kinase Assay
The purpose of CDK1/Cyclin B1 assay is to evaluate the inhibition (% inhibition and IC50 values) of small molecule inhibitors by using a Luminescent based ADP-Glo assay. CDK1/Cyclin B1 catalyzes the production of ADP from ATP. ADP-Glo assay monitors ADP producing biochemical reactions. ADP-Glo is performed in 2 steps upon completion of kinase reaction: a combined termination of kinase reaction and depletion of remaining ATP in the first step, and conversion of generated ADP to ATP and the newly produced ATP to light output using luciferase/luciferin reaction in the second step. The luminescent signal generated is proportional to the ADP concentration produced and is correlated with the kinase activity. CDK1/Cyclin B1 was purchased from Carna (Cat 04-102). Typical reaction solutions (10 uL final reaction volume) contained 2% DMSO (f inhibitor), 10 mM MgCl2, 1 mM EGTA, 0.05% BSA, 2 mM DTT, 80 uM ATP (ATP Km=78.6 uM), 0.01% Brig-35, 0.75 uM substrate, and 4.917 nM CDK1/Cyclin Bl enzyme complex in 50 mM HEPES buffer at pH 7.5. The assay was initiated with the addition of ATP-containing substrate solution, following a 30-minute pre-incubation of enzyme and inhibitor at room temperature in the reaction mixture. The reaction was stopped after 90 minutes at room temperature by the addition of 10 uL of ADP-GLO Reagent. After a 90 minute incubation, 20 uL of Kinase Detection Reagent was added. Samples were incubated for 40 minutes, after which plate well luminescence was measured on a Envision microplate reader. The IC50 determinations were made from a plot of the fractional velocity as a function of inhibitor concentration fit to the 4 parameters IC50 equation.

The subject of the next assay is MCF-7 cells. Nature of the assay: Cell Growth Inhibition, MCF-7 (CellTiterGlo, 6 days). In kind it is cell-based. As to conditions: Homo sapiens, MCF7, 144 h; MCF-7, 6-day treatment, CellTiterGlo 2.0.
Text: as §1
In general terms: In ATP-based viability assays light output follows the ATP content of the culture.

pIC50: −log10 of the molar value. Bounds are passed on as bounds.

CDK1/Cyclin B1, sequence (P06493 whole entry): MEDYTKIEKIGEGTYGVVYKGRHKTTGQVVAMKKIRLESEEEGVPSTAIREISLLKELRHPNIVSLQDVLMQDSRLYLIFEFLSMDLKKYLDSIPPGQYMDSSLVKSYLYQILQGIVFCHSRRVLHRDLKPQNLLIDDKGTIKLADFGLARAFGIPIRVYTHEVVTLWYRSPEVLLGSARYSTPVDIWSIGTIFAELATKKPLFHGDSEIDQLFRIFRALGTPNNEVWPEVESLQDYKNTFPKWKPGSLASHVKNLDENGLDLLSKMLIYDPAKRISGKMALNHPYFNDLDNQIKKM
CDK1/Cyclin B1, sequence (P14635 whole entry partner): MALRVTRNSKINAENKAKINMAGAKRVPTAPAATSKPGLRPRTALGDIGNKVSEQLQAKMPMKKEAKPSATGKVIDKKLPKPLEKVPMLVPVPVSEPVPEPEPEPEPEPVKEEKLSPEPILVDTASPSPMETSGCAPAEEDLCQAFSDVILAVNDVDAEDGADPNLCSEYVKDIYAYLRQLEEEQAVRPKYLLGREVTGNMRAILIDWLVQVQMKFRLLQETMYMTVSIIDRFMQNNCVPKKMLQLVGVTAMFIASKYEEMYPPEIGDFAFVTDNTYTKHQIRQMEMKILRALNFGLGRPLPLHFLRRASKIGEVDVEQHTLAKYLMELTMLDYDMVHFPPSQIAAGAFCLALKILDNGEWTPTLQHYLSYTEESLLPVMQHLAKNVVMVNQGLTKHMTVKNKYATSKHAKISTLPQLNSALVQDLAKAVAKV
CDK4/Cyclin D1, sequence (P11802 whole entry): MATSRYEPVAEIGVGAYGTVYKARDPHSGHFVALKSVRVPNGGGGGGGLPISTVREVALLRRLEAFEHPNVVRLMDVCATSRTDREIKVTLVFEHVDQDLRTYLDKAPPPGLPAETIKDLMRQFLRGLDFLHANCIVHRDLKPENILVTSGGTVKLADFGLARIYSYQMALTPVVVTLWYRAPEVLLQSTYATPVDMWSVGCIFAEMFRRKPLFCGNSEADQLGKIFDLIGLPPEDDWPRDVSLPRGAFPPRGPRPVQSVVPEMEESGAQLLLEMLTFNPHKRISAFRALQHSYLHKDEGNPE
CDK4/Cyclin D1, sequence (P24385 whole entry partner): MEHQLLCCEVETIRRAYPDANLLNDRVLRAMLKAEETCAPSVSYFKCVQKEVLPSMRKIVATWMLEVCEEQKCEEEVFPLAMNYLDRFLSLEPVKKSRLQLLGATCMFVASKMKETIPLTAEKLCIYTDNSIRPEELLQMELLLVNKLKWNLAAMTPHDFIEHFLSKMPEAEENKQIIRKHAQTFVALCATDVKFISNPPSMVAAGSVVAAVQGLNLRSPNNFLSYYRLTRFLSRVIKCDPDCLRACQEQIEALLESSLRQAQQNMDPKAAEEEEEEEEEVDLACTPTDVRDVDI
CDK6/Cyclin D3, sequence (Q00534 whole entry): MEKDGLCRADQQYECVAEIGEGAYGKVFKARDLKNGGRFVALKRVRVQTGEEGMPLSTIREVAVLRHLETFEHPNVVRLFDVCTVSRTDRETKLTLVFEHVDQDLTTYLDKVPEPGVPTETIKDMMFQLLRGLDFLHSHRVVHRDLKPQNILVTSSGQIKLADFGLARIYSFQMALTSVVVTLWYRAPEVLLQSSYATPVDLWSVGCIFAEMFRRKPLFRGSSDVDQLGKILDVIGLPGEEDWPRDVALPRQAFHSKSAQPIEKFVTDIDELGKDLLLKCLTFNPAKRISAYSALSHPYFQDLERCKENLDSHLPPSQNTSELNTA
CDK6/Cyclin D3, sequence (P30281 whole entry partner): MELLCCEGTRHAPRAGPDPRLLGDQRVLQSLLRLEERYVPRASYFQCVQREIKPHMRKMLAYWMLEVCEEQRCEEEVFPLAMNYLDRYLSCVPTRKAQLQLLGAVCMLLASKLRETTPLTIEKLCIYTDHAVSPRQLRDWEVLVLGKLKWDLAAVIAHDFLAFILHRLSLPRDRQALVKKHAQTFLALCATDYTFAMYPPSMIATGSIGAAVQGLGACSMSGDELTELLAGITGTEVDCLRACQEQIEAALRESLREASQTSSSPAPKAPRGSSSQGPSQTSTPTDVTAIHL

Regarding `CN1CC2(CCN(c3cc(C(F)F)cc4cnc(NC5CCN(c6ncc(C7CC7)cn6)CC5)nc34)C2)C1` [Example 64, N-(1-(5-cyclopropylpyrimidin-2-yl)piperidin-4-yl)-6-(difluoromethyl)-8-(2-methyl-2,6-diazaspiro[3.4]octan-6-yl)quinazolin-2-amine], the pIC50 with OVCAR-3 cells was under 5.70; at CDK4/Cyclin D1, over 6.70; on CDK6/Cyclin D3, under 5.70; in assay [1] it was 5.70 to 6.30; against CDK1/Cyclin B1, under 5.70; in the assay with MCF-7 cells, 5.70 to 6.30.

In the case of `CN1Cc2ccc(Nc3ncc4cc(C(F)F)cc(N5CCC6(CN(C)C6)C5)c4n3)cc2C1` [Example 66, 6-(difluoromethyl)-8-(2-methyl-2,6-diazaspiro[3.4]octan-6-yl)-N-(2-methylisoindolin-5-yl)quinazolin-2-amine], the pIC50 was 5.70 to 6.30 with OVCAR-3 cells; over 6.70 on CDK4/Cyclin D1; over 6.70 on CDK6/Cyclin D3; over 6.70 in assay [1]; 5.70 to 6.30 at CDK1/Cyclin B1; 5.70 to 6.30 with MCF-7 cells.

For the compound `O=S(=O)(N1CCC(Nc2ncc3cccc(N4CC5(CNCCC5(F)F)C4)c3n2)CC1)C1(C(F)F)CC1` [Example 105, 8-(9,9-difluoro-2,6-diazaspiro[3.5]nonan-2-yl)-N-(1-((1-(difluoromethyl)cyclopropyl)sulfonyl)piperidin-4-yl)quinazolin-2-amine], the pIC50 in the assay with OVCAR-3 cells is under 5.70; at CDK4/Cyclin D1, over 6.70; on CDK6/Cyclin D3 it was 6.30 to 6.70; in assay [1], over 6.70; against CDK1/Cyclin B1, 6.30 to 6.70; with MCF-7 cells, under 5.70.

As to `CN1Cc2ccc(Nc3ncc4cc(C(F)F)cc(N5CC6(C5)CN(S(C)(=O)=O)C6)c4n3)cc2C1` [Example 58, 6-(difluoromethyl)-N-(2-methylisoindolin-5-yl)-8-(6-(methylsulfonyl)-2,6-diazaspiro[3.3]heptan-2-yl)quinazolin-2-amine], the pIC50 with OVCAR-3 cells is 5.70 to 6.30; on CDK4/Cyclin D1, over 6.70; on CDK6/Cyclin D3, over 6.70; in assay [1], over 6.70; against CDK1/Cyclin B1 it was 5.70 to 6.30; with MCF-7 cells it was 5.70 to 6.30.

With `CN1CC2(CCN(c3cc(C(F)F)cc4cnc(NC5CCN(S(C)(=O)=O)CC5)nc34)C2)C1` [Example 62, 6-(difluoromethyl)-8-(2-methyl-2,6-diazaspiro[3.4]octan-6-yl)-N-(1-(methylsulfonyl)piperidin-4-yl)quinazolin-2-amine], the pIC50 in the assay on OVCAR-3 cells was 5.70 to 6.30; on CDK4/Cyclin D1, over 6.70; on CDK6/Cyclin D3, over 6.70; in assay [1], over 6.70; at CDK1/Cyclin B1, 6.30 to 6.70; in the assay on MCF-7 cells, over 6.70.

Take `CS(=O)(=O)N1CCC(Nc2ncc3cc(C(F)(F)F)cc(N4CC5(CNCC5(F)F)C4)c3n2)CC1` [Example 116, 8-(8,8-difluoro-2,6-diazaspiro[3.4]octan-2-yl)-N-(1-(methylsulfonyl)piperidin-4-yl)-6-(trifluoromethyl)quinazolin-2-amine]: the pIC50 was under 5.70 in the assay with OVCAR-3 cells; over 6.70 on CDK4/Cyclin D1; over 6.70 at CDK6/Cyclin D3; over 6.70 in assay [1]; 5.70 to 6.30 against CDK1/Cyclin B1; 5.70 to 6.30 in the assay with MCF-7 cells.

`FC(F)c1cc(N2CC3(CCNC3)C2)c2nc(NC3CCN(c4ncc(C5CC5)cn4)CC3)ncc2c1` [Example 68, N-(1-(5-cyclopropylpyrimidin-2-yl)piperidin-4-yl)-6-(difluoromethyl)-8-(2,6-diazaspiro[3.4]octan-2-yl)quinazolin-2-amine]: the pIC50 in the assay on OVCAR-3 cells was 5.70 to 6.30; on CDK4/Cyclin D1, over 6.70; at CDK6/Cyclin D3, 6.30 to 6.70; in assay [1], over 6.70; at CDK1/Cyclin B1, over 6.70; in the assay with MCF-7 cells, 5.70 to 6.30.

In the case of `CC(C)(F)CN1CCC2(CC(c3cc(C(F)F)cc4cnc(NC5CCN(S(C)(=O)=O)CC5)nc34)C2)C1` (stereo not drawn) [Example 103, 6-(difluoromethyl)-8-(6-(2-fluoro-2-methylpropyl)-6-azaspiro[3.4]octan-2-yl)-N-(1-(methylsulfonyl)piperidin-4-yl)quinazolin-2-amine], the pIC50 in the assay on OVCAR-3 cells was 5.70 to 6.30; on CDK4/Cyclin D1, over 6.70; at CDK6/Cyclin D3, over 6.70; in assay [1], over 6.70; against CDK1/Cyclin B1 it was over 6.70; in the assay on MCF-7 cells, 6.30 to 6.70.
